Laboratory results published in PubChem BioAssay AID1033 (Sanford-Burnham Center for Chemical Genomics, 2008).
Calls of active or inactive are those of the source. No rule for the calls is given here.

Each compound was assayed against Chaperone protein DnaK (Escherichia coli (strain K12)) (UniProt P0A6Y8) (assay: E. coli DnaK SBD ligand binding – biophysical, NMR, chaperone (AID 1033)). Settings: Purified DnaK SBD.
Chain of Chaperone protein DnaK (Escherichia coli (strain K12)) (P0A6Y8 whole entry, looked up): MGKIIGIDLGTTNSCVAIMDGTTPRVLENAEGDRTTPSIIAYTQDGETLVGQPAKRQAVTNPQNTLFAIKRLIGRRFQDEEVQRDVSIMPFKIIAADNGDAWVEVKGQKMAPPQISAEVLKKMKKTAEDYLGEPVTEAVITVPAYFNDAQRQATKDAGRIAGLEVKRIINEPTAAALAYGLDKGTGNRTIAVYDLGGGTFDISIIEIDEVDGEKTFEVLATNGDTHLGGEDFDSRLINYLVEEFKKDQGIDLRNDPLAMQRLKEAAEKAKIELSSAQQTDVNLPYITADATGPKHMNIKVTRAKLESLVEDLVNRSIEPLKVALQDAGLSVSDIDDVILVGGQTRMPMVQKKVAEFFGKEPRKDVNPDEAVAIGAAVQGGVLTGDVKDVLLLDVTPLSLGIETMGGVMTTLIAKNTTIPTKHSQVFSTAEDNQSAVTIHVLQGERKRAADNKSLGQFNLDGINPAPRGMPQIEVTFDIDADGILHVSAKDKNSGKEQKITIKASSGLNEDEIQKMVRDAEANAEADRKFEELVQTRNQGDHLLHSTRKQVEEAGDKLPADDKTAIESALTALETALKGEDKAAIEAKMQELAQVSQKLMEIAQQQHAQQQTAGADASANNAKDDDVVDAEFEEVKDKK

| Structure (SMILES) | Kd |
| --- | --- |
| CC1(C)CC2(CCO1)NCCN1C(=O)CSC12 (configuration not stated) | > 4 mM (inactive) |
| COc1ccc(/C=C2/N=C(N)SC2=O)cc1 | > 4 mM (inactive) |
| CCN1CCN(CCCNc2ncnc3nc[nH]c23)CC1 | > 4 mM (inactive) |
| Cc1ccccc1NC(=O)c1ocnc1C | > 4 mM (inactive) |
| O=C(CSc1ccccc1)N1CCC2(CC1)OCCO2 | > 4 mM (inactive) |
| COc1ccc(NC(=O)N2CCCCC2)cc1 | > 4 mM (inactive) |
| COc1cc2c(cc1OC)-c1nnnn1C(C)(C)C2 | > 4 mM (inactive) |
| CC(=O)Nc1ccc(C(=O)NC2CCSC2=O)cc1 (configuration not stated) | > 4 mM (inactive) |
| COC1=CC23CCCN2CCc2cc4c(cc2C3C1O)OCO4 (configuration not stated) | > 4 mM (inactive) |
| N#Cc1cnc(N2CCCCC2)nc1N | > 4 mM (inactive) |
| CCOC(=O)c1c(C)n([O-])c2ccccc2[n+]1=O | > 4 mM (inactive) |
| O=C(O)/C=C1\NC(=O)c2ccccc21 | > 4 mM (inactive) |
| O=C(O)c1ccc2[nH]c3c(c2c1)CSCC3 | > 4 mM (inactive) |
| O=C1CSC2(CN3CCC2CC3)N1 (configuration not stated) | > 4 mM (inactive) |
| Cc1nc(N2CCOCC2)[nH]c(=O)c1C | > 4 mM (inactive) |
| COC(=O)c1cn(C(=O)OC)c2ccccc12 | > 4 mM (inactive) |
| CC(C)=CCC[C@](C)(O)C1CC=C(C)CC1 (some centres not stated) | > 4 mM (inactive) |
| C/C=C/COc1nc2c(c(=O)n(C)c(=O)n2C)n1C | > 4 mM (inactive) |
| CC(C)(O)[C@@H]1[C@H]2OC(=O)[C@@H]1[C@]1(O)C[C@H]3O[C@]34C(=O)O[C@H]2[C@]14C | > 4 mM (inactive) |
| Cc1ccc(C)n1/N=C1\NC(=O)CS1 | > 4 mM (inactive) |
| Cc1nc2nc(Cc3ccccc3)[nH]n2c(=O)c1Cl | > 4 mM (inactive) |
| CCCN1CCC(N2CCC(O)CC2)CC1 | > 4 mM (inactive) |
| O=c1nc(N2CCCCC2)nc2n1CCO2 | > 4 mM (inactive) |
| COc1cccc(OC)c1C(=O)N1CCOCC1 | > 4 mM (inactive) |
| CC(=O)c1cc2c(s1)SCC(=O)N2 | > 4 mM (inactive) |

| Structure (SMILES) | Kd |
| --- | --- |
| COCCOc1nc2ccccc2nc1C | > 4 mM (inactive) |
| N#Cc1cc2ccccc2nc1N | > 4 mM (inactive) |
| Nc1ccc(Cc2ccc(N)cc2)cc1 | > 4 mM (inactive) |
| O=C(Nn1c(=S)[nH]c2ccccc2c1=O)c1ccncc1 | > 4 mM (inactive) |
| COc1cc(O)c(C)c(O)c1 | > 4 mM (inactive) |
| COC(=O)c1cc(-c2c(C)nn(-c3ccccc3)c2C)n[nH]1 | > 4 mM (inactive) |
| O=C(O)CCC(=O)Nc1ccccn1 | > 4 mM (inactive) |
| COc1cc(OC)c2c(=O)c(O)c(-c3ccc(OC)c(OC)c3)oc2c1 | > 4 mM (inactive) |
| COc1ccc2[nH]c(O)c(NC(C)=O)c2c1 | > 4 mM (inactive) |
| O=C(NCN1CCOCC1)c1cnccn1 | > 4 mM (inactive) |
| O=C1CSC(=O)N1c1cccc(O)c1 | > 4 mM (inactive) |
| N=c1n(N)c2ccccc2n1CCO | > 4 mM (inactive) |
| C=C(C)C1CC=C(CO)CC1 (configuration not stated) | > 4 mM (inactive) |
| CC(=O)n1nc(-c2cccnc2)nc1N | > 4 mM (inactive) |
| S=C(c1cccnc1)N1CCOCC1 | > 4 mM (inactive) |
| CC1C[C@H]2CC(=O)[C@H]3CCCN4CCC[C@H]2[C@]34C1 (some centres not stated) | > 4 mM (inactive) |
| CC1(C)C2CC(=O)[C@]3(C)C(CC[C@@]4(C)[C@H](c5ccoc5)OC(=O)[C@H]5O[C@]543)[C@@]2(C)C(=O)C[C@H]1O (some centres not stated) | > 4 mM (inactive) |
| Cn1c2c(c(=O)n(C)c1=O)CN(Cc1ccco1)CN2 | > 4 mM (inactive) |
| CS(=O)(=O)N1CCN(c2ncccn2)CC1 | > 4 mM (inactive) |
| COC(=O)c1scc(C)c1N | > 4 mM (inactive) |
| OC1CCN(Cc2ccc[nH]2)CC1 | > 4 mM (inactive) |
| CC(C)CCCC(C)C1CCC2C3C[C@@H](O)[C@@]4(O)C[C@@H](O)CC[C@]4(C)C3CC[C@]12C (some centres not stated) | > 4 mM (inactive) |
| O=C(Nc1ccc2c(c1)OCO2)c1cnn2cccnc12 | > 4 mM (inactive) |
| O=c1[nH]cc(Nc2ccccc2)c(=O)[nH]1 | > 4 mM (inactive) |
| Cn1nc(C(C)(C)C)cc1N | > 4 mM (inactive) |

| Structure (SMILES) | Kd |
| --- | --- |
| CP(C)(=O)CCC(=O)O | > 4 mM (inactive) |
| Cc1cc2ncn(S(=O)(=O)N3CCOCC3)c2cc1C | > 4 mM (inactive) |
| Cc1ccc(CCNc2ccccc2)c[n+]1[O-] | > 4 mM (inactive) |
| COc1ccc(-c2nc3nc(C)cc(C)n3n2)cc1 | > 4 mM (inactive) |
| NNc1ncnc2sccc12 | > 4 mM (inactive) |
| COc1ccccc1/C=C\C(=O)O | > 4 mM (inactive) |
| CSc1ccc(S(=O)(=O)N2CCCC2)cc1 | > 4 mM (inactive) |
| COC(=O)[C@@]1(C)CCC[C@]2(C)c3ccc(O)c(C(C)C)c3CCC12 (some centres not stated) | > 4 mM (inactive) |
| O=c1n(-c2ccccc2)c(=O)n2n1CCCC2 | > 4 mM (inactive) |
| COc1ccccc1-c1n[nH]c(=O)o1 | > 4 mM (inactive) |
| CCN1CCn2c1nc(N1CCOCC1)nc2=O | > 4 mM (inactive) |
| Cc1ccc(C)c(C(=O)n2cnnc2N)c1 | > 4 mM (inactive) |
| NS(=O)(=O)c1ccc2c(c1)OCCO2 | > 4 mM (inactive) |
| NCc1cccc2c1OCCCO2 | > 4 mM (inactive) |
| COCC(=O)N1CCCc2ccccc21 | > 4 mM (inactive) |
| O=C(c1ccc(Cl)s1)N1CCOCC1 | > 4 mM (inactive) |
| CCSc1nc2ccccc2[nH]1 | > 4 mM (inactive) |
| CC(C)=NNC(=O)c1ccccc1 | > 4 mM (inactive) |
| COCCn1c(N)nc2c1c(=O)[nH]c(=O)n2C | > 4 mM (inactive) |
| NC1=NC(=O)/C(=C\c2cccnc2)S1 | > 4 mM (inactive) |
| CCN1CCc2c(sc(N)c2C#N)C1 | > 4 mM (inactive) |
| CC(C)(C)c1cc(NC(=O)c2cccnc2)no1 | > 4 mM (inactive) |
| CC(=O)O[C@@H]1CC2C(C)(C)[C@@H](O)CC[C@]2(C)C2CC[C@@]3(C)[C@H](c4ccoc4)OC(=O)[C@H]4O[C@]43[C@@]21C (some centres not stated) | > 4 mM (inactive) |
| CCc1ccc(C(=O)N2CCCC2)s1 | > 4 mM (inactive) |
| Cc1nn2c(=O)nc3sc4c(c3c2[nH]c1=O)CCCC4 | > 4 mM (inactive) |

| Structure (SMILES) | Kd |
| --- | --- |
| O=C(O)c1ccc2occc2c1 | > 4 mM (inactive) |
| Cc1cc(=O)c2ccccc2n1CC(N)=O | > 4 mM (inactive) |
| O=[N+]([O-])c1ccc(/C=N/c2ncn[nH]2)cc1 | > 4 mM (inactive) |
| Cc1nnsc1C(=O)Nc1ccccc1[N+](=O)[O-] | > 4 mM (inactive) |
| CCNCC(O)c1ccc([N+](=O)[O-])cc1 (configuration not stated) | > 4 mM (inactive) |
| NC1C2CC3CC1CC(O)(C3)C2 (configuration not stated) | > 4 mM (inactive) |
| O=C1C2C3C=CC(C3)C2C(=O)N1CCO (configuration not stated) | > 4 mM (inactive) |
| Cc1noc(-c2ccccc2)c1C(=O)O | > 4 mM (inactive) |
| Cn1ccnc1C(O)c1ccccc1 (configuration not stated) | > 4 mM (inactive) |
| Cc1n[nH]c(C)c1CN | > 4 mM (inactive) |
| Cn1c(SCC(=O)NCCO)nc2ccccc2c1=O | > 4 mM (inactive) |
| NC(=O)c1cc(N)ccc1N1CCCCC1 | > 4 mM (inactive) |
| Cc1nnc(NC(=O)C(C)Sc2nncn2C)s1 (configuration not stated) | > 4 mM (inactive) |
| Nc1ccc(-n2cncn2)cc1 | > 4 mM (inactive) |
| CC1(C)CC[C@]2(C)CC[C@]3(C)C(=CCC4[C@@]5(C)CC[C@H](O)C(C)(C)C5CC[C@]43C)C2C1 (some centres not stated) | > 4 mM (inactive) |
| Cc1cc(N2C(=O)CCC2=O)n(-c2ccccc2)n1 | > 4 mM (inactive) |
| O=C1CNC(=O)N1c1cccc(Cl)c1 | > 4 mM (inactive) |
| Nc1ccc(CN2CCOCC2)cc1 | > 4 mM (inactive) |
| COc1ccc(S(=O)(=O)Nc2ccccn2)c(C)c1C | > 4 mM (inactive) |
| COc1ccccc1-c1c(C)nn2c(C)c(C(C)=O)cnc12 | > 4 mM (inactive) |
| CC(=O)Nc1ccc(N2CCOCC2)cc1 | > 4 mM (inactive) |
| OCc1ccc2c(c1)OCCO2 | > 4 mM (inactive) |
| O=C(O)c1cccc2c1OCC2 | > 4 mM (inactive) |
| CCCCCC(=O)Cc1cc(O)cc(O)c1C(=O)Oc1cc(CC(=O)CCCCC)c(C(=O)O)c(OC)c1 | > 4 mM (inactive) |
| O=[N+]([O-])c1cccc(-c2c[n+](=O)c3c(n2[O-])CCC3)c1 | > 4 mM (inactive) |

| Structure (SMILES) | Kd |
| --- | --- |
| Cn1cc(Cl)c(C(=O)Nc2ccncc2)n1 | > 4 mM (inactive) |
| CN(C)C(=S)Nc1ccc([N+](=O)[O-])cc1 | > 4 mM (inactive) |
| O=C(Nc1ccc2ccccc2c1)c1cnccn1 | > 4 mM (inactive) |
| NC(=O)c1ccc(NC(=O)c2ccco2)cc1 | > 4 mM (inactive) |
| C(=N\c1ncn[nH]1)/c1cccs1 | > 4 mM (inactive) |
| Nc1ncnc(NCCOCCO)c1[N+](=O)[O-] | > 4 mM (inactive) |
| Cc1ccc(NC(=O)CC2NCCNC2=O)c(C)c1 (configuration not stated) | > 4 mM (inactive) |
| O=c1c(O)c(-c2ccccc2)oc2ccc3occc3c12 | > 4 mM (inactive) |
| c1ccc2c(c1)CN1CCCC1=N2 | > 4 mM (inactive) |
| Cc1nc(N)sc1C(=O)N/N=C/c1ccncc1 | > 4 mM (inactive) |
| Cc1c(C)[n+]([O-])c(-c2ccc([N+](=O)[O-])cc2)n1O | > 4 mM (inactive) |
| CC1(C)C2CC(=O)[C@]3(C)C(CC[C@@]4(C)[C@H](c5ccoc5)OC(=O)[C@H]5O[C@]543)[C@@]2(C)C=C[C@@H]1O (some centres not stated) | > 4 mM (inactive) |
| Nc1ccc2c(c1)OCO2 | > 4 mM (inactive) |
| NC1=NN(c2ccccc2)C(=O)C1 | > 4 mM (inactive) |
| NNC(=O)c1ccccc1-n1cccc1 | > 4 mM (inactive) |
| CCN(CC)S(=O)(=O)c1cccc2nsnc12 | > 4 mM (inactive) |
| Cc1csc2nc(N)nn12 | > 4 mM (inactive) |
| COc1c(-c2coc3cc4c(cc3c2=O)CC(OC(C)=O)C(C)(C)O4)ccc2c1C=CC(C)(C)O2 (configuration not stated) | > 4 mM (inactive) |
| Cc1oc(S(=O)(=O)N2CCCCC2)cc1C(=O)O | > 4 mM (inactive) |
| Oc1cccc2[nH]ccc12 | > 4 mM (inactive) |
| CN(C)S(=O)(=O)N1CCc2ccccc21 | > 4 mM (inactive) |
| Cc1cc(C)n(-c2nc(C)nc(N)n2)n1 | > 4 mM (inactive) |
